Assay [1] has as its target Skp2 (Homo sapiens, UniProt Q13309). Kind of assay: Selectivity assay vs other E3s: Skp2. In kind it is biochemical. As to conditions: for inhibition at 100 µM: value in brackets, read-out: % Inhibition Skp2 @ (100 μM); for inhibition at 10 µM: read-out: % Inhibition Skp2 @ 10 μM. On the procedure:
(§1) βTrCP Ubiquitination Assay and Selectivity Assays
(§2) Master mixes were prepared in a 50 mM Herpes buffer at pH 7.5, in 75 mM NaCl and 1 mM DTT without Mg or ATP and peptides were added to a final concentration of 100 μM. Reactions were incubated at room temperature for 30 minutes and then Mg/ATP was added to the mix. Reactions were further incubated for an additional 60 minutes and then stopped by adding SDS gel loading buffer and boiled for 5 minutes. Reactions were run on SDS-PAGE (10%) and transferred to nitrocellulose membranes and probed with HRP-Streptavidin.
(§3) Candidate compounds were tested for inhibition of Fbw7 and Skp2 as described above.

The target of assay [2] is βTrCP (Homo sapiens, UniProt Q9Y297). Briefly: Fluorescence polarisation (FP) binding assay with fluorescein-tagged IκB peptide.
Target sequence in this assay (P63208 whole entry partner, one chain of several): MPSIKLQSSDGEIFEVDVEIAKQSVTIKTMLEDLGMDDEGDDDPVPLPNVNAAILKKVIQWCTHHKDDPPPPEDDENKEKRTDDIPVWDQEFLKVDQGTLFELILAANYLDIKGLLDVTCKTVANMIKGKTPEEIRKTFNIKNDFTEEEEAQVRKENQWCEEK
Assay [3] addresses FBW7/Skp1 (Homo sapiens, UniProt Q969H0). Kind of assay: Selectivity assay vs other E3s: Fbw7. The format is biochemical. The following applies: for inhibition at 100 µM: value in brackets, read-out: % Inhibition Fbw7 @ (100 μM); for inhibition at 10 µM: read-out: % Inhibition Fbw7 @ 10 μM. The procedure:
as §1, §2
FBW7 selectivity assays were performed in the same manner except using FBW7/Skp1 as E3 component and cyclin E as the substrate. Blots were probed using anti-cyclin E antibody.
as §3

The target in assay [4] is T1, βTrCP (Homo sapiens, UniProt Q9Y297).
T1 sequence (Q9Y297 1-605): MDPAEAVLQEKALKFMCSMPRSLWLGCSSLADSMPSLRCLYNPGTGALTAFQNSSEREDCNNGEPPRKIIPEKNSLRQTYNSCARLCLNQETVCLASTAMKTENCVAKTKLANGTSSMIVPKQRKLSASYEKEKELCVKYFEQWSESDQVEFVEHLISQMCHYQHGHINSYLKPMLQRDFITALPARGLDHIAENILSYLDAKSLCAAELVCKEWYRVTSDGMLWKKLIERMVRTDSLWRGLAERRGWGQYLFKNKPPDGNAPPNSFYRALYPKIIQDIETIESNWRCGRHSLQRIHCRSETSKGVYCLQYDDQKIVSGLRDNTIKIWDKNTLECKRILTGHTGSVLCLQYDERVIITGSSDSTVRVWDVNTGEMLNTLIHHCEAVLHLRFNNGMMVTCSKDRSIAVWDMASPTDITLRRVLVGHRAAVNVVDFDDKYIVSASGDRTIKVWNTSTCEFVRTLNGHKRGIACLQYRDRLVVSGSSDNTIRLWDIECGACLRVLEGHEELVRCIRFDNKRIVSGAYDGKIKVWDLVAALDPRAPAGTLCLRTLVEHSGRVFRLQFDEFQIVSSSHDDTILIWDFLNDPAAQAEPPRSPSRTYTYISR
Kind of assay: Biotin pull down assay with biotinylated IκB peptide. As to conditions: 100 μM compound. In kind it is binding.

Assay [5] addresses β-TrCP1/Skp1 (Homo sapiens, UniProt Q9Y297). Kind of assay: βTrCP ubiquitination assay (Ub assay). The format is biochemical. The following applies: 100 μM compound. On the procedure: as §1
0.5 μM Peptide substrate (biotin)
as §2
Candidate compounds were tested in duplicate at both 10 and 100 μM against the E3 ligase cascades βTrCP(IκBα) and βTrCP(β-catenin). The E3 assays were carried out according to the component concentrations detailed in Table 9. In each case the E2 was HA,6His-UbcH3-(hu,FL), the E1 was 6His-UBE1-(hu,FL) and the ubiquitin (Sigma U6253) was biotinylated at a 5:1 ratio. Substrate phosphorylation was performed in the absence of compound; consequently any observed signal modulation should not reflect inhibition of the up-stream kinase reaction. All other steps (E1, E2 and substrate ubiquitination) were carried out in the presence of compound. The stopped reaction mix (10 μl) was added to an ECL plate loaded with anti c-Myc ( 1/500 Dilution, Millipore 05-724) and blocked with 5% BSA. Binding was allowed to proceed for 1 hour at RT before a wash step (3 40 μl PBST washes). Detection was achieved by binding SA-Ru TAG at 1 μg/ml (1 hour @ RT, 3 40 μl PBST washes) before reading on an MSD Sector Imager 6000.
Assays were performed as described above

Where [6] appears, read: Table 11, with spread, read-out: FP IC50/μM.
Where [7] appears, read: Tables 1, 3, 7, 8, 10 nM fluorescein-tagged IκB peptide, read-out: FP Assay IC50/μM.

The record followed here is patent US20190106460A1, “BINDING INHIBITORS OF THE BETA. TRANSDUCIN REPEAT-CONTAINING PROTEIN” (priority 2011, published 2019).

Read-outs that look alike come from different tables or passages of the source. Starred links: 1 amine or outer side, 2 acyl side, 3 side chain; linkers in the order of their positions; H or OH if unused. Non-standard residues stand in square brackets, D forms with d. Residues, ends and D or L forms follow the SMILES beside them. *: point of attachment. Phe(4-NO2) = N[C@@H](Cc1ccc([N+](=O)[O-])cc1)C(=O)O; Benzenesulfonyl(4-OMe) = COc1ccc(S(=O)(=O)*)cc1; Phe(3-F) = N[C@@H](Cc1cccc(F)c1)C(=O)O; Phe(4-F) = N[C@@H](Cc1ccc(F)cc1)C(=O)O; 1Nal = N[C@@H](Cc1cccc2ccccc12)C(=O)O; NMeE = CN[C@@H](CCC(=O)O)C(=O)O; pS = N[C@@H](COP(=O)(O)O)C(=O)O; X4 = O=S(=O)(c1ccc(Cl)cc1Cl)*; Suc = O=C(CCC(=O)[*:2])[*:1]; Tos = Cc1ccc(S(=O)(=O)*)cc1

A word on the inhibition: it is the change of the read-out against control, counted positive when it falls. The term Ki denotes a dissociation constant, usually derived from enzyme kinetics or from competition with a known ligand.

Skp2, sequence (Q13309 whole entry, species assumed): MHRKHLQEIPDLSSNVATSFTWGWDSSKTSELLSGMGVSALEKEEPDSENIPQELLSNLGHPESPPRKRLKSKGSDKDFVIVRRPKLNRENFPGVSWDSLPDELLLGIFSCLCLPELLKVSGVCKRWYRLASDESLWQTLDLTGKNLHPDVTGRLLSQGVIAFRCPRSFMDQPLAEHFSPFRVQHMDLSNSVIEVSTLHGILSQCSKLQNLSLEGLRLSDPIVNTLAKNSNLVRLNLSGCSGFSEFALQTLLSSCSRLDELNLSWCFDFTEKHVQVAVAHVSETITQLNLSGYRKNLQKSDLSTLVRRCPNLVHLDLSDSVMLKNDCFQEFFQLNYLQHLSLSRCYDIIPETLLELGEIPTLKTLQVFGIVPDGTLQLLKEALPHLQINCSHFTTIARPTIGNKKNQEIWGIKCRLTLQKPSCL
Skp2, sequence (P63208 whole entry partner, species assumed): as the sequence (P63208 whole entry partner, one chain of several) above
Skp2, sequence (Q13616 whole entry partner, species assumed): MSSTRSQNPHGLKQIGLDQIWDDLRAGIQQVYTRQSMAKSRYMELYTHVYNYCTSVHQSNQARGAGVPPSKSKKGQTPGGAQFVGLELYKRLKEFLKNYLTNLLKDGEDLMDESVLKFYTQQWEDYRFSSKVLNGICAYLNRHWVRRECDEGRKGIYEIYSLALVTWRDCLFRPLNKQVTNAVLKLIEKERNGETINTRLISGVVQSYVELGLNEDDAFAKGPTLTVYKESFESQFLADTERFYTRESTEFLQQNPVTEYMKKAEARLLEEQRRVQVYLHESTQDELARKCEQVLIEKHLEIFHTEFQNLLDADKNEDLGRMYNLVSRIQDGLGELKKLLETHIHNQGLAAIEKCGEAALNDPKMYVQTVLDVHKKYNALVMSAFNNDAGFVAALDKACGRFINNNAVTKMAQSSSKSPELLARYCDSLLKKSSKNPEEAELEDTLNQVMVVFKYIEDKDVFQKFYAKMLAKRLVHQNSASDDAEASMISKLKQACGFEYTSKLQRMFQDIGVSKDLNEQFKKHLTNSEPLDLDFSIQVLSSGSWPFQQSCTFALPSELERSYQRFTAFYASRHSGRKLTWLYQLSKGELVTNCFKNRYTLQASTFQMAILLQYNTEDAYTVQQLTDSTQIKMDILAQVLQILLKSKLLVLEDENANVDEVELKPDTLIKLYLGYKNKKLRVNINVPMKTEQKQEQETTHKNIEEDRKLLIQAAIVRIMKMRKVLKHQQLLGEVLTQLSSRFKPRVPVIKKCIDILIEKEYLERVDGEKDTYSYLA
Skp2, sequence (P62877 whole entry partner, species assumed): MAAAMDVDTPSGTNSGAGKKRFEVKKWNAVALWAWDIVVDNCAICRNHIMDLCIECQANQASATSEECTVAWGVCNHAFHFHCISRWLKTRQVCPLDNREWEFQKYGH
FBW7/Skp1, sequence (Q969H0 whole entry, species assumed): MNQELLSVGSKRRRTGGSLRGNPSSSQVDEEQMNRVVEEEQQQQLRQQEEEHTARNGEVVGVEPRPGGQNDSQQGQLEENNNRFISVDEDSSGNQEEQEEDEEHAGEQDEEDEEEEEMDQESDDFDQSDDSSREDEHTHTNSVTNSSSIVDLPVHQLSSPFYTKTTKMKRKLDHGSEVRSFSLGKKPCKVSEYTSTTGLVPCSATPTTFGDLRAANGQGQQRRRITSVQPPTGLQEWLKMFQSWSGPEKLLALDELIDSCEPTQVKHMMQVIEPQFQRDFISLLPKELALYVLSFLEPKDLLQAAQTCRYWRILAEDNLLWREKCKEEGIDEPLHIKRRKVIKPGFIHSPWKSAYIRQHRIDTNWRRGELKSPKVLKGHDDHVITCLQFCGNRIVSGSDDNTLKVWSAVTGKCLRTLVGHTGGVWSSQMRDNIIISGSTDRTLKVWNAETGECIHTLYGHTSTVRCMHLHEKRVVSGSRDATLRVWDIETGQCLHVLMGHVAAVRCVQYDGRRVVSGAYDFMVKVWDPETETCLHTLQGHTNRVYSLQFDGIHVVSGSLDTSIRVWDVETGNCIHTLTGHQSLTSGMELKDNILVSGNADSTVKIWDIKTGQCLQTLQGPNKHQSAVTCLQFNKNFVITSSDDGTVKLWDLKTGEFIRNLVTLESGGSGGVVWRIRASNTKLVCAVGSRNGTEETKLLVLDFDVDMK
FBW7/Skp1, sequence (P63208 whole entry partner, species assumed): as the sequence (P63208 whole entry partner, one chain of several) above
FBW7/Skp1, sequence (Q13616 whole entry partner, species assumed): as the sequence (Q13616 whole entry partner, species assumed) above
FBW7/Skp1, sequence (P62877 whole entry partner, species assumed): as the sequence (P62877 whole entry partner, species assumed) above
β-TrCP1/Skp1, sequence (P63208 2-163 partner limits assumed, one chain of several): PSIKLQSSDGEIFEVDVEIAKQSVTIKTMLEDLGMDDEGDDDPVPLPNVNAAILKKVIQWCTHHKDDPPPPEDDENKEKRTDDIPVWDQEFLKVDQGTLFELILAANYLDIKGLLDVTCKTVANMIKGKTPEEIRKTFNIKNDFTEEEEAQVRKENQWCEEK

As for `COc1ccc(S(=O)(=O)N[C@@H](CC(=O)O)C(=O)N[C@@H](CCC(=O)O)C(=O)NCC(=O)N[C@@H](Cc2cccc(F)c2)C(=O)N[C@@H](Cc2c[nH]c3ccccc23)C(=O)N[C@@H](CCC(=O)O)C(N)=O)cc1` [4-(MeO)-PhSO2-DEGF(3F)WE-NH2] ({Benzenesulfonyl(4-OMe)}-DEG[Phe(3-F)]WE-NH2), in assay [1], the inhibition at 100 µM is 3% and the inhibition at 10 µM is 15%. In assay [2] (setting [6]), the IC50 came to 0.027 ± 0.002 µM. In assay [3], the inhibition at 100 µM turned out to be 8% and the inhibition at 10 µM was found to be 0%.
The corresponding values for `COc1ccc(S(=O)(=O)N[C@H](CC(=O)O)C(=O)N[C@@H](CCC(=O)O)C(=O)NCC(=O)N[C@@H](Cc2cccc(F)c2)C(=O)N[C@@H](Cc2c[nH]c3ccccc23)C(=O)N[C@@H](CCC(=O)O)C(N)=O)cc1` [4-(MeO)-PhSO2-dEGF(3F)WE-NH2] ({Benzenesulfonyl(4-OMe)}-[dD]EG[Phe(3-F)]WE-NH2) are 12%, 7%, 0.017 ± 0.002 µM, 18% and 0%.
Regarding `COC(=O)CC[C@H](NC(=O)[C@H](Cc1ccc(OC)cc1)NC(=O)[C@H](Cc1ccccc1)NC(=O)CNC(=O)[C@H](CCC(=O)O)NC(=O)CCC(=O)O)C(N)=O` [Suc-EGF-Y(Me)-E(OMe)-NH2] (Suc-EGFY(Me)E(OMe)-NH2), the IC50 in assay [2] (setting [7]) amounted to 71 µM.
Same read-out and setting: for `CC[C@H](C)[C@H](NC(=O)CNC(=O)[C@H](CCC(=O)O)NC(=O)CCC(=O)O)C(=O)N[C@@H](Cc1cccc2ccccc12)C(=O)N[C@@H](CCC(=O)O)C(N)=O` [Suc-EGI-1Nal-E-NH2] (Suc-EGI[1Nal]E-NH2) the value was 15.1 µM.
The same measure, in the same setting: for `CC[C@H](C)[C@H](NC(=O)CNC(=O)[C@H](CCC(=O)O)NC(=O)CCC(=O)O)C(=O)N[C@@H](Cc1ccccc1)C(=O)N[C@@H](CCC(=O)O)C(N)=O` [Suc-EGIFE-NH2] (Suc-EGIFE-NH2) the value was greater than 100 µM; for `NC(=O)[C@H](Cc1cccc(F)c1)NC(=O)[C@H](Cc1ccc(O)cc1)NC(=O)CNC(=O)[C@H](CCC(=O)O)NC(=O)CCC(=O)O` [Suc-EGY-F(3F)-NH2] (Suc-EGY[Phe(3-F)]-NH2), 91 µM; for `NC(=O)[C@H](Cc1ccc(F)cc1)NC(=O)[C@H](Cc1ccc(O)cc1)NC(=O)CNC(=O)[C@H](CCC(=O)O)NC(=O)CCC(=O)O` [Suc-EGY-F(4F)-NH2] (Suc-EGY[Phe(4-F)]-NH2), 71 µM.
Still for that read-out and setting: for `NC(=O)[C@H](Cc1ccc([N+](=O)[O-])cc1)NC(=O)[C@H](Cc1ccc(O)cc1)NC(=O)CNC(=O)[C@H](CCC(=O)O)NC(=O)CCC(=O)O` [Suc-EGY-F(4NO2)-NH2] (Suc-EGY[Phe(4-NO2)]-NH2) the value was 91 µM; for `NC(=O)CC[C@H](NC(=O)CCC(=O)O)C(=O)NCC(=O)N[C@@H](Cc1ccccc1)C(=O)N[C@@H](Cc1ccccc1)C(=O)N[C@@H](CCC(=O)O)C(N)=O` [Suc-QGFFE-NH2], 10 µM.
Take `NC(=O)CC[C@H](NC(=O)CCC(=O)O)C(=O)NCC(=O)N[C@@H](Cc1ccc(O)cc1)C(=O)N[C@@H](Cc1ccccc1)C(=O)N[C@@H](CCC(=O)O)C(N)=O` [Suc-QGYFE-NH2]: the IC50 in assay [2] (setting [7]) was 10.7 µM.
For `Cc1ccc(S(=O)(=O)N[C@@H](CC(=O)O)C(=O)N[C@@H](CCC(=O)O)C(=O)NCC(=O)N[C@@H](Cc2cccc(F)c2)C(=O)N[C@@H](Cc2c[nH]c3ccccc23)C(=O)N[C@@H](CCC(=O)O)C(N)=O)cc1` [Ts-DEGF(3F)WE-NH2] (Tos-DEG[Phe(3-F)]WE-NH2), the values for the inhibition at 100 µM in assay [1] and in assay [3] were 7% and 8%, respectively. The inhibition at 10 µM in assay [1] and in assay [3] was 0% each time. Further, the IC50 in assay [2] (setting [6]) worked out at 0.018 ± 0.002 µM.
In the case of `Cc1ccc(S(=O)(=O)N[C@H](CC(=O)O)C(=O)N[C@@H](CCC(=O)O)C(=O)NCC(=O)N[C@@H](Cc2cccc(F)c2)C(=O)N[C@@H](Cc2c[nH]c3ccccc23)C(=O)N[C@@H](CCC(=O)O)C(N)=O)cc1` [Ts-dEGF(3F)WE-NH2] (Tos-[dD]EG[Phe(3-F)]WE-NH2), the inhibition at 100 µM was 25% in assay [1] and 0% in assay [3]. The inhibition at 10 µM in assay [1] amounted to 19%; in assay [3], 9%. Besides, the IC50 in assay [2] (setting [6]) is 0.029 ± 0.005 µM.
`Cc1ccc(S(=O)(=O)N[C@H](CC(=O)O)C(=O)N[C@@H](CCC(=O)O)C(=O)NCC(=O)N[C@@H](Cc2cccc(F)c2)C(=O)N[C@@H](Cc2c[nH]c3ccccc23)C(=O)N(C)[C@@H](CCC(=O)O)C(N)=O)cc1` [UBP032, Ts-dEGF(3F)WE(Me)-NH2] (Tos-[dD]EG[Phe(3-F)]W[NMeE]-NH2): in assay [1], the inhibition at 100 µM came out at 0% and the inhibition at 10 µM is 0%. The “Biotin Pulldown Assay 100 μM” value in assay [4] is “inhibits”. In addition, in assay [3], the inhibition at 100 µM turned out to be 10% and the inhibition at 10 µM was 4%. In addition, the “Ub Assay 100 μM” value in assay [5] is reported as “inhibits”.
As for `NC(=O)[C@H](CCC(=O)O)NC(=O)[C@H](Cc1c[nH]c2ccccc12)NC(=O)[C@H](Cc1cccc(F)c1)NC(=O)CNC(=O)[C@H](CCC(=O)O)NC(=O)[C@@H](CC(=O)O)NS(=O)(=O)c1ccc(Cl)cc1Cl` [UBP048, 2,4-(Cl)2-PhSO2-dEGF(3F)WE-NH2] (X4-[dD]EG[Phe(3-F)]WE-NH2), the affinity in assay [2] (FP dose-response) corresponds to a Ki of 27 nM. In other words, the double-digit nanomolar range.
`CC[C@H](C)[C@H](NC(=O)CNC(=O)[C@H](COP(=O)(O)O)NC(=O)[C@H](CC(=O)O)NC(=O)[C@@H](N)C(C)C)C(=O)N[C@@H](Cc1c[nH]cn1)C(=O)N[C@@H](CO)C(N)=O` [VD-pS-GIHS-NH2] (H-VD[pS]GIHS-NH2): the IC50 in assay [2] (setting [7]) is greater than 100 µM.
